Experiments:
FRDA fibroblasts = experiment: FRDA fibroblast assay for protection from oxidative stress; assay type: cell-based; settings: Homo sapiens, 24 h preincubation, 1 mM BSO, compared to untreated FRDA fibroblasts, read-out: EC50 for reduction of cell death in FRDA fibroblasts
Description: A cellular assay using FRDA-patient derived fibroblasts (as described by Jauslin, M L et al, Human Molecular Genetics 11; 3055-3063 (2002)); is used to determine the cell protecting effect of the test compounds by analyzing survival of dermal fibroblasts taken from FRDA patients and unaffected normal donors under conditions of partial GSH depletion. Exposure of FRDA fibroblasts to BSO (L-buthionine (S,R)-sulfoximine) under conditions of restricted selenium causes depletion of cellular glutathione (GSH) and severe plasma membrane damage leading to cell death. Preincubation with the test compounds before the addition of BSO is used to determine if they can protect FRDA cells from BSO-mediated cell death.
Primary fibroblasts were derived from donors with a molecular diagnosis of FRDA and control donors with no mitochondrial disease. Lines F2, C2 and C3 were obtained from Coriell Cell Repositories (Camden, N.J., USA; catalog #'s GM04078, GM 08402 and GM08399, respectively). All cell types were diagnosed at the molecular level for intronic GAA triplet repeat length in the trataxin gene using a PCR-based method, according to methods known in the art. […] The cells were seeded in microtiter plates at a density of 4000 cells per 100 μl in growth medium consisting of 25% (v/v) M199 EBS and 64% (v/v) MEM EBS without phenol red (Bioconcept, Allschwil, Switzerland) supplemented with 10% (v/v) fetal calf serum (PAA Laboratories, Linz, Austria), 100 U/ml penicillin, 100 μg/ml streptomycin (PAA Laboratories, Linz, Austria), 10 μg/ml insulin (Sigma, Buchs, Switzerland), 10 μg/ml EGF (Sigma, Buchs, Switzerland), 10 μg/ml bFGF (PreproTech, Rocky Hill, N.J., USA) and 2 mM glutamine (Sigma, Buchs, Switzerland). The cells were incubated in the presence of the various test compounds for 24 h before addition of 1 mM BSO (L-buthionine (S,R)-sulfoximine).
Cell viability was measured after the first signs of toxicity appeared in the BSO-treated controls (typically after 16-48 h). The cells were stained for 60 min at room temperature in PBS with 1.2 μm calceinAM and 4 μm ethidium homodimer (Live/Dead assay, Molecular Probes, Eugene, Oreg., USA). Fluorescence intensity was measured with a Gemini Spectramax XS spectrofluorimeter (Molecular Devices, Sunnyvale, Calif., USA) using excitation and emission wavelengths of 485 and 525 nm, respectively.

Male C57/BL6 mice = experiment: MPTP animal model (neurobehavioral outcome); assay type: in vivo; settings: 30 mg/kg/day ip; for functional deficit produced by MPTP: days 1-3; for functional outcome versus vehicle treated animals: days 1 and 2, comparable to negative control group
Protocol: In vivo evaluation is carried out using mice that have been treated with 1-methyl-4-phenyl-1,2,3,6-tetrahydropyridine (MPTP), a neurotoxin. […] In a number of species, including humans, […] and rodents, MPTP produces an irreversible and severe parkinsonian syndrome which includes virtually all the clinical features of the disease.
Male C57/BL6 mice (Harlan, Ind.), weight 25-30 g, were used in all studies. MPTP-HCl (Sigma) was administered i.p. according to one of the following protocols. The maximum volume which was given per injection is 200 μL. In all studies, animals were euthanized with carbon dioxide and, brains were removed for subsequent determination of dopamine depletion where appropriate.
Animals received 25 mg/kg of MPTP once a day for 5 consecutive days. The end point was 2 days after the final dose.
Animals received 4×20 mg/kg of MPTP at 2 hour intervals. The end point was at either 7 or 14 days.
Animals received 2×40 mg/kg of MPTP with this repeated 16 hours later. The end point was at either 14 or 28 days.
Animals received 25 mg/kg of MPTP, given twice weekly for 5 weeks. The end point was either 1, 3 or 24 weeks after the final dose.
Compound efficacy was examined with the use of neurobehavioral models. These models allowed the determination of a given compound's ability to reverse the motor deficits seen with MPTP treatment.
All animals received pre-training for the individual model and a baseline reading was obtained one day prior to the commencement of MPTP treatment.
The open field test was carried out in a clear, acrylic open box 60 cm×60 cm. The base of the box was marked into a 5×5 grid of […] squares. Animals were individually placed in the box and allowed to roam free. The number of squares an animal crossed in a 90 second time period was recorded. In order to be scored, the animal must either have had all four limbs within a given square or, all four limbs must have left a given square.
A tactile stimulus (0.5×0.5 cm square of “sticky tape”) was applied to each side of the animal's face and the time taken to remove it is recorded. The following measurements were recorded: • a. Latency to contact left side tape • b. Latency to contact right side tape • c. Order of side contacted (left vs. right) • d. Latency to remove left side tape • e. Latency to remove right side tape Pole Test
A rough surfaced metal pole (diameter 8 mm, height 50 cm) protruding from a cage filled with animal bedding was used for this test. Animals were placed head upwards at the top of the pole. They were required to turn and descend face downwards and the time taken for this was recorded (latency to reach bedding). Timing was started when the individual animal gripped the top of the pole and was stopped when all four limbs contacted the bedding.
All test compounds were administered ip. The maximum volume which was given per injection was 200 μL. Compounds were dosed up to twice daily, two days prior and 7 days post MPTP treatment.
A baseline reading was taken for each animal one day prior to MPTP treatment. All subsequent readings were normalized to the individual animal's baseline. Values were expressed as a percent baseline.
Data was percent baseline and expressed as mean±std dev: […]
Compound and vehicle given for 9 days in total, 2 days prior to MPTP and 7 days after MPTP treatment. L-DOPA given 1 hour prior to the pole test, each day.

[1] = test system: dopaminergic neuronal cell line; experiment: High glutamate-induced oxidative stress assay (HGOS); assay type: cell-based; settings: Mus musculus; 30 mM glutamate, 16 hrs, Cell Tracker Green; read-out: EC50 for protection against HGOS cell injury and cell death
Description: Protection against redox stress can be further evaluated in cell culture using high glutamate induced oxidative stress (HGOS) in mouse dopaminergic cell lines. The cytotoxic effect of glutamate is not due to excitotoxicity, as this cell line is devoid of inotropic glutamate receptors. Rather, the glutamate-induced toxicity of dopaminergic cells is associated with an inhibition of cystine transport which subsequently leads to depletion of intracellular glutathione (GSH) levels (Murphy T. H., et al. Neuron 2, 1547-1558, 1989), activation of neuronal 12-lipoxygenase (Li, Y. et al., Neuron 19,453-463, 1997), increased ROS production (Tan S. et al., J. Cell Biol. 141, 1423-1432, 1998) and elevated intracellular Ca^2+ (Li, Y. et al., see supra). Some molecules were measured for their ability to protect such cells against glutamate-induced stress and the assay is detailed in Examples.
This procedure was used to induce high glutamate-induced oxidative stress (HGOS) in a dopaminergic neuronal cell line. Using this assay the potency and efficacy of test articles against HGOS neuronal cell injury and cell death was established in a high throughput manner.
The cells were seeded into 96-well plates at a density of 2000 per well and left to grow for 72 hours in a 33° C. incubator with 5% CO2 in air atmosphere. The passage number of the cells for each assay experiment were no later than p11 in order to minimize experimental variation.
All compounds were dissolved in DMEM-No Glu containing 1 mM glucose, 30 mM glutamate and 1× Pen/Strep. DMEM-No Glu with 1 mM glucose and 1×P/S was used as the negative control, DMEM-No Glucose with 1 mM glucose, […] was used as a positive control and 100 μM Glutathione was added to the positive control as a standard. All of the procedures for this involving the making and dilution of compounds were performed using aseptic conditions and with minimal light.
The plates were removed from the incubator and examined under the microscope for morphological appearance and density. Using an aseptic technique and an 8-channel aspirator the media was carefully removed from the cells and replaced with 200 μl of 1×HBSS. This was done as quickly as possible to prevent the cells drying out. The plates were then placed in the humidified 37° C. incubators of the Biomek 2000 Side Loader. Four plates were washed at a time so as to minimize the time that the cells were sitting in 1×HBSS prior to addition of the compound test solution.
The Beckman Biomek workstations were used to load the compounds and controls from the mother plates onto the cell plates that were prewashed with HBSS under sterile conditions. The plates were incubated in the upper HTS incubator at 37° C. in 5% CO2 for exactly 16 hrs. The following day, using the Beckman Biomek workstations, the plates were removed from the incubator. Using Cell Tracker Addition, the compounds were removed from the plates, washed once with […] of pre-warmed 1×HBSS and then 100 μL of 5 μM Cell Tracker Green was added to each well. The plates were incubated at 37° C. for 30 min to allow the dye to enter the cell and be cleaved by the esterases. After washing the cells twice with prewarmed 1×HBSS, the plates were read with the 485 excitation; 538 emission filter pair on a Fluoroskan.

| SMILES | EC50 (FRDA fibroblasts) [µM] | functional deficit produced by MPTP (Male C57/BL6 mice) | functional outcome versus vehicle treated animals (Male C57/BL6 mice) | EC50 [1] [µM] |
| --- | --- | --- | --- | --- |
| Cc1c(O)cc2c(c1C)OC(C)(C)C=C2 [2,2,7,8-Tetramethyl-2H-chromen-6-ol] | 0.01 to 6 | significantly reduced | significantly better | – |
| CC(C)=CCc1c(O)c(C)c(C)c2c1CCC(C)(C)O2 [2,2,7,8-Tetramethyl-5-(3-methyl-but-2-enyl)-chroman-6-ol] | – | significantly reduced | significantly better | – |
| Cc1cc(O)cc2c1OC(C)(CCC(=O)O)CC2 (centres unmarked) [3-(6-Hydroxy-2,8-dimethyl-chroman-2-yl)-propionic acid] | 0.01 to 6 | significantly reduced | significantly better | – |
| COC(=O)CSCc1c(O)c(C)c(C)c2c1CCC(C)(C)O2 [(6-Hydroxy-2,2,7,8-tetramethyl-chroman-5-ylmethylsulfanyl)-acetic acid methyl ester] | – | significantly reduced | significantly better | ≤ 5 |
| COC(=O)CCC1(C)CCc2c(Br)c(O)c(C)c(C)c2O1 (centres unmarked) [3-(5-Bromo-6-hydroxy-2,7,8-trimethyl-chroman-2-yl)-propionic acid methyl ester] | 0.01 to 6 | significantly reduced | significantly better | ≤ 5 |
| CC(C)=CCc1c(O)c(C)c(C)c2c1CCC(C)(CCC(=O)O)O2 (centres unmarked) [3-[6-Hydroxy-2,7,8-trimethyl-5-(3-methyl-but-2-enyl)-chroman-2-yl]-propionic acid] | – | significantly reduced | significantly better | – |
